The results in this text go back to patent US10077261B2, “Imidazolin-5-one derivative useful as FASN inhibitors for the treatment of cancer” (Janssen Pharmaceutica NV, priority 2012, dated 2018).

In test [1] the target is T1, hFASN enzyme (full length) (Homo sapiens, UniProt P49327).
T1 construct: 10 μL hFASN enzyme (full length, 300 ng, purified in house); made in house
Kind of test: Fatty Acid Synthase (FASN) inhibition scintillation proximity assay. In kind it is biochemical. The conditions noted are these: for inhibition at 10 µM: read-out: Human FASN % inhibition @ 10 μM, 10 μM test compound; for IC50: read-out: Human FASN pIC50 (converted). An outline of the steps:
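Read-out relies on hydrophobic ³H-palmitate product, formed from ³H-acetyl-CoA and malonyl-CoA, binding streptavidin imaging beads, measured at 610±20 nm after at least 24 h. Full-length enzyme (300 ng) in phosphate buffer pH 7.5 with DTT; eight compound concentrations, 0.01–30 μM.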
For orientation: In a scintillation proximity assay essentially only radioactivity close to the scintillant gives light.

In test [2] the test system is A2780 ovarian cells. Put plainly: A2780 ovarian cell proliferation assay in lipid reduced medium, with palmitate (MTT). The class given is cell-based. The settings on record: Homo sapiens, A2780, 96 h; read-out: pIC50 A2780 Ovarian Cell, With Palmitate (converted). An outline of the steps: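 In this palmitate-supplemented format, compound dilutions (30 μM down to 0.01 μM) are added to cells in lipid-reduced serum with 25 μM palmitate, 0.2% fatty-acid-free BSA and 0.25% ethanol. After four days (96 h) MTT absorbance at 544 nm is recorded and fitted by minimum sum of squares.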

Test [3] relates to A2780 ovarian cells. Kind of test: A2780 ovarian cell proliferation assay in lipid reduced medium, without palmitate (MTT). In kind it is cell-based. The conditions noted are these: Homo sapiens, A2780, 96 h; read-out: pIC50 A2780 Ovarian Cell, Without Palmitate (converted).
Test [4] relates to LNCaP-Vancouver prostate cells. Kind of test: In vitro LNCaP Vancouver prostate cell proliferation assay in lipid reduced medium. In kind it is cell-based. The conditions noted are these: read-out: pIC50 LNCaP_Vancouver prostate cell (converted). How it is done:
LNCaP-Vancouver prostate cells were obtained from the Vancouver Prostate Cancer Centre. Cells were maintained in RPMI-1640, 10% Fetal Calf Serum (FCS, Hyclone), 2 mM glutamine and 50 μg/ml Gentamicin.
For the proliferation experiment 1500 LNCaP-Vancouver cells per well were seeded in a 384-well black with clear bottom plate (costar 3712BC) in 40 μl RPMI-1640, 10% Lipid reduced serum (LRS, Hyclone), 50 μg/ml Gentamicin and 2 mM Glutamine and incubated at 37° C., 5% CO2. The next day 10 μl of test compound/DMSO diluted in medium was added (3E-5M, 1E-5M, 3E-6M, 1E-6M, 3E-7M, 1E-7M, 3E-8M, 1E-8M final concentration). Compounds were tested in duplicate. After 96 h incubation at 37° C., 5% CO2 25 μl ATP-glow mix was added. The plate was incubated for 30 min at 37° C. and luminescence was measured with the Envision.
Analysis: Determination of pIC50 Values
pIC50 values were calculated as follows.
where mLC and mHC are the means of the low control wells and high control wells on the plate, after manual exclusion of outliers. The relation between the % Controlmin values and concentration was fitted to a 4-parameter logistic curve using a non-linear least squares regression method to determine the pIC50 value. Outlying data points were excluded manually to get a correct fit. The pIC50 corresponds to −log 10(IC50), if the IC50 is expressed in molar units (http://www.ncbi.nlm.nih.gov/books/NBK91994). The IC50 parameter was always determined by non-linear regression, but one or more of the other parameters may have been held fixed on a relevant input value, such as 0 for the bottom values.
For dose response curves with FASN inhibitors in LNCaP-Vancouver or PC-3M-Luc-C6 cells the curves bottom out around 30 to 40% of the control value. A standard fit PL2, forcing the lower bound to this level was used.
Representative compounds of the present invention were tested according to the procedure as described in Biological Example 4a and 4b above, with results as listed in Table 9, below.

Test [5] deals with Fatty Acid Synthase Keto-reductase Domain (FASN KR) (Homo sapiens, UniProt P49327). Put plainly: Fatty Acid Synthase keto-reductase domain (FASN KR) inhibition, NADPH oxidation at 340 nm.
Sequence of Fatty Acid Synthase Keto-reductase Domain (FASN KR) (P49327 whole entry, the tested form may be a part): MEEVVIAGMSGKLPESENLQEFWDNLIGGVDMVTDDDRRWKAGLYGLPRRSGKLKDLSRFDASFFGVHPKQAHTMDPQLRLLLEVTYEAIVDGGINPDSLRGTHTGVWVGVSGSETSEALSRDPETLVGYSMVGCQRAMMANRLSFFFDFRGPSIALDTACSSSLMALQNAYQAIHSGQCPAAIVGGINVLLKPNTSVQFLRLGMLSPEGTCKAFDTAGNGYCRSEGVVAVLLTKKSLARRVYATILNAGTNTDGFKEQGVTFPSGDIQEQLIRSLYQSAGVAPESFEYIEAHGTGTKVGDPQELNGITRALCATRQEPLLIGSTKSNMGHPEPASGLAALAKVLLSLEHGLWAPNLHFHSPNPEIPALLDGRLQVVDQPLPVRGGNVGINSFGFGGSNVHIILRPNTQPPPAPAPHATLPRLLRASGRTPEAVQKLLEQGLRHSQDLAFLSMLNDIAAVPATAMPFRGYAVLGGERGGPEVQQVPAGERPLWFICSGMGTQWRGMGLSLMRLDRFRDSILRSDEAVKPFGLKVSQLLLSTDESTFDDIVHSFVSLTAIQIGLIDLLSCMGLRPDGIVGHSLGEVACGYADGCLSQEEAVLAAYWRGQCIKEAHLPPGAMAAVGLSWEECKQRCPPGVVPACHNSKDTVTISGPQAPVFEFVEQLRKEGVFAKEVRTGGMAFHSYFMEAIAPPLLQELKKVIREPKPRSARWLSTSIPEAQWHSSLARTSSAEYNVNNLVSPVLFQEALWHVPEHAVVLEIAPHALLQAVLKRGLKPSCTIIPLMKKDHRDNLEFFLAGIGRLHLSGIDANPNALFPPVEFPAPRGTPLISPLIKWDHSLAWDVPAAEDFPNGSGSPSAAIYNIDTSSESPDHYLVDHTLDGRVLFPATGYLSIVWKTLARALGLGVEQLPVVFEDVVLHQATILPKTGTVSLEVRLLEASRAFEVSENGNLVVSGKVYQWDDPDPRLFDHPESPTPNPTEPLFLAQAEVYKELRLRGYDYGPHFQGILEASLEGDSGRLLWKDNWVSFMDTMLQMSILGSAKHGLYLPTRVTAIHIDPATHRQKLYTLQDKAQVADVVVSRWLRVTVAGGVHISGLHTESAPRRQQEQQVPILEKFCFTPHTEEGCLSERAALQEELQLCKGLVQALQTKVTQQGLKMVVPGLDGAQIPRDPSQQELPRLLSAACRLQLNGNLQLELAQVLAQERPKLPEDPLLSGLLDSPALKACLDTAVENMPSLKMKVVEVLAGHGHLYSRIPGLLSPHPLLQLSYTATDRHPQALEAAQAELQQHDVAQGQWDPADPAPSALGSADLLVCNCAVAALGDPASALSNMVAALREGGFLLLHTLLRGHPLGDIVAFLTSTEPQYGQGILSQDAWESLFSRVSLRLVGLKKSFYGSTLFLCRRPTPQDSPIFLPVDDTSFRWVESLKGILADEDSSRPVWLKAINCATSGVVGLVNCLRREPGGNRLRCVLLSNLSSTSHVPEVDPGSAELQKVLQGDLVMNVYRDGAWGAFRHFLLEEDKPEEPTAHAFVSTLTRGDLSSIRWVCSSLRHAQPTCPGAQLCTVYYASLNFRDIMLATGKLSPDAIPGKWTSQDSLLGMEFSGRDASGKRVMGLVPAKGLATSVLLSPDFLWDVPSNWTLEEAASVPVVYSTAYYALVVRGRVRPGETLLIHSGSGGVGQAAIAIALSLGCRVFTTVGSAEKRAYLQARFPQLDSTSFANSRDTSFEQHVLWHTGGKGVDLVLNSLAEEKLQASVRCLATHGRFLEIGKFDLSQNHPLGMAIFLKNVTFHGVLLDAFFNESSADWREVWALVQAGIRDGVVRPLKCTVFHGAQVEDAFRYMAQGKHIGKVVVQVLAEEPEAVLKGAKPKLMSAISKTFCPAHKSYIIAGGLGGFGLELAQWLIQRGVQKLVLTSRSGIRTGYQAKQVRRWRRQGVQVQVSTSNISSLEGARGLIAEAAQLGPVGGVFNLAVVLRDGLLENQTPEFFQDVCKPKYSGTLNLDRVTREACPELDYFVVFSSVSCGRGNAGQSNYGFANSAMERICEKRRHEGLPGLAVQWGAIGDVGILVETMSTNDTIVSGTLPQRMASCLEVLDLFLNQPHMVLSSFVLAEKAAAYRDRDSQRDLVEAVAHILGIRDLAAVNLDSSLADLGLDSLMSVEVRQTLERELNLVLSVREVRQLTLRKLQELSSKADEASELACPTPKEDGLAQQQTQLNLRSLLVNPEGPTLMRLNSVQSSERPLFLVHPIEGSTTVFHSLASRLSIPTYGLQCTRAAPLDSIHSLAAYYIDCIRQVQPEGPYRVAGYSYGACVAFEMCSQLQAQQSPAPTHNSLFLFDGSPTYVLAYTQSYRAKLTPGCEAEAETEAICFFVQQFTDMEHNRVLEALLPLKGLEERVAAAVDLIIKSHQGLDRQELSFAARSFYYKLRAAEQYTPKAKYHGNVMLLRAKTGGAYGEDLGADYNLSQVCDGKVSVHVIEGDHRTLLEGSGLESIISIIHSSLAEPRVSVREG
Procedure: After 20 minutes incubation at room temperature the plate was measured again (T2).
The decrease in absorbance was calculated as (Absorbance before incubation T1)−(Absorbance following incubation T2).
A plot of Controlmin versus test compound concentration was fitted to a 4-parameter logistic curve using a non-linear least squares regression method.

T1 sequence (P49327 whole entry): as the sequence (P49327 whole entry, the tested form may be a part) above

Regarding `Cn1ncc2cc(-c3ccc(C4=NC5(CC5)C(=O)N4CC4CN(C(=O)C5CC5)C4)c(F)c3)ccc21` [compound 347, 6-((1-(cyclopropanecarbonyl)azetidin-3-yl)methyl)-5-(2-fluoro-4-(1-methyl-1H-indazol-5-yl)phenyl)-4,6-diazaspiro[2.4]hept-4-en-7-one], the inhibition (commonly the drop in the measured response relative to a control, in per cent) at 10 µM in test [1] came to 98%. In addition, the IC50 in test [1] was 49 nM; in the test with A2780 ovarian cells [2], > 10000 nM; with A2780 ovarian cells [3] it was ~50.1 nM; in test [4], 708 nM; in test [5], 120 nM.

In the case of `Cn1ncc2cc(-c3ccc(C4=NC5(CC5)C(=O)N4C[C@@H]4CCN(C(=O)C5CC5)C4)nc3)ccc21` [compound 397, 6-{[(3R)-1-(Cyclopropylcarbonyl)pyrrolidin-3-yl]methyl}-5-[5-(1-methyl-1H-indazol-5-yl)pyridin-2-yl]-4,6-diazaspiro[2.4]hept-4-en-7-one], in test [1] (hFASN enzyme full length, scintillation proximity assay, "~" = standard error of pIC50 larger than 0.5), the “Human FASN pIC50” value is 6.1. Also, in test [1], the inhibition at 10 µM amounted to 90%. Further, the IC50 in the test on A2780 ovarian cells [2] was > 10000 nM; with A2780 ovarian cells [3] it was 1550 nM; in test [4], 3020 nM; in test [5], ~3890 nM.

In the case of `Cc1sc2ccc(-c3ccc(C4=NC5(CC5)C(=O)N4C[C@@H]4CCN(C(=O)C5CC5)C4)cc3F)cc2c1C` [compound 406, 6-{[(3R)-1-(Cyclopropylcarbonyl)pyrrolidin-3-yl]methyl}-5-[4-(2,3-dimethyl-1-benzothiophen-5-yl)-3-fluorophenyl]-4,6-diazaspiro[2.4]hept-4-en-7-one], in test [1], the inhibition at 10 µM amounted to 99%. Also, the IC50 in test [1] is 126 nM; with A2780 ovarian cells [2] it was > 10000 nM; with A2780 ovarian cells [3], 6030 nM; in test [4], 7080 nM; in test [5], 363 nM.

Consider `O=C(C1CC1)N1CC[C@@H](CN2C(=O)C3(CC3)N=C2c2ccc(-c3cccc4[nH]ncc34)cn2)C1` [compound 429, 6-{[(3R)-1-(Cyclopropylcarbonyl)pyrrolidin-3-yl]methyl}-5-[5-(1H-indazol-4-yl)pyridin-2-yl]-4,6-diazaspiro[2.4]hept-4-en-7-one], for which the inhibition at 10 µM in test [1] worked out at 96%. Besides, the IC50 in test [1] was 240 nM; in the test with A2780 ovarian cells [2], > 10000 nM; in the test with A2780 ovarian cells [3], 417 nM; in test [4], 1320 nM; in test [5], 513 nM.

With `Cc1cc(C2=NC3(CC3)C(=O)N2CC2CN(C(=O)C3CC3)C2)ccc1-c1ccc2[nH]ccc2c1` [compound 435, 6-{[1-(Cyclopropylcarbonyl)azetidin-3-yl]methyl}-5-[4-(1H-indol-5-yl)-3-methylphenyl]-4,6-diazaspiro[2.4]hept-4-en-7-one], in test [1], the inhibition at 10 µM came out at 91%. Moreover, the IC50 in test [1] is 263 nM; in the test with A2780 ovarian cells [2], > 10000 nM; with A2780 ovarian cells [3] it was ~933 nM; in test [4] it was 3470 nM; in test [5], 1230 nM.

Take `Cn1nc(C2CC2)c2cc(-c3ccc(C4=NC5(CC5)C(=O)N4C[C@@H]4CCN(C(=O)C5CC5)C4)cc3)ccc21` [compound 465, 6-{[(3R)-1-(Cyclopropylcarbonyl)pyrrolidin-3-yl]methyl}-5-[4-(3-cyclopropyl-1-methyl-1H-indazol-5-yl)phenyl]-4,6-diazaspiro[2.4]hept-4-en-7-one]: the inhibition at 10 µM in test [1] came out at 99%. The IC50 in test [1] is 151 nM; with A2780 ovarian cells [2], > 10000 nM; in the test with A2780 ovarian cells [3], 182 nM; in test [4], 525 nM; in test [5] it was 200 nM.

`O=C(C1CC1)N1CC[C@@H](CN2C(=O)C3(CC3)N=C2c2ccc(-c3ccc4cnc(Cl)cc4c3)cc2)C1` [compound 466, 5-[4-(3-Chloroisoquinolin-6-yl)phenyl]-6-{[(3R)-1-(cyclopropylcarbonyl)pyrrolidin-3-yl]methyl}-4,6-diazaspiro[2.4]hept-4-en-7-one]: the inhibition at 10 µM in test [1] is 87%. Further, the IC50 in test [1] was 479 nM; in the test with A2780 ovarian cells [2], > 10000 nM; in the test on A2780 ovarian cells [3] it was ~2690 nM; in test [4], 3800 nM; in test [5], 1350 nM.

As to `CCC(=O)N1CC(CN2C(=O)C3(CC3)N=C2c2ccc(-c3ccc4c(cnn4C)c3)cc2C)C1` [compound 471, 5-[2-Methyl-4-(1-methyl-1H-indazol-5-yl)phenyl]-6-[(1-propanoylazetidin-3-yl)methyl]-4,6-diazaspiro[2.4]hept-4-en-7-one], the inhibition at 10 µM in test [1] worked out at 99%. Also, the IC50 in test [1] was 182 nM; in the test with A2780 ovarian cells [2] it was > 10000 nM; in the test on A2780 ovarian cells [3], 417 nM; in test [4] it was 1290 nM; in test [5], 331 nM.

Regarding `Cc1cc(-c2ccc3c(cnn3C)c2)ccc1C1=NC2(CC2)C(=O)N1CC1CN(C(=O)C(C)C)C1` [compound 473, 5-[2-Methyl-4-(1-methyl-1H-indazol-5-yl)phenyl]-6-{[1-(2-methylpropanoyl)azetidin-3-yl]methyl}-4,6-diazaspiro[2.4]hept-4-en-7-one], in test [1], the inhibition at 10 µM came to 95%. In addition, the IC50 was 269 nM in test [1]; > 10000 nM with A2780 ovarian cells [2]; ~275 nM with A2780 ovarian cells [3]; 2190 nM in test [4]; 525 nM in test [5].

In the case of `Cc1cc(C2=NC3(CC3)C(=O)N2C[C@@H]2CCN(C(=O)C3CC3)C2)ccc1-c1ccc2oc(C#N)cc2c1` [compound 476, 5-[4-(6-{[(3R)-1-(Cyclopropylcarbonyl)pyrrolidin-3-yl]methyl}-7-oxo-4,6-diazaspiro[2.4]hept-4-en-5-yl)-2-methylphenyl]-1-benzofuran-2-carbonitrile], in test [1], the inhibition at 10 µM worked out at 90%. The IC50 was 263 nM in test [1]; > 10000 nM with A2780 ovarian cells [2]; ~2040 nM in the test on A2780 ovarian cells [3]; 3720 nM in test [4]; 617 nM in test [5].

Take `Cc1cc(-c2ccc3c(cnn3C)c2)ccc1C1=NC2(CC2)C(=O)N1CC1CN(C(=O)C2(CO)CC2)C1` [compound 480, 6-[(1-{[1-(Hydroxymethyl)cyclopropyl]carbonyl}azetidin-3-yl)methyl]-5-[2-methyl-4-(1-methyl-1H-indazol-5-yl)phenyl]-4,6-diazaspiro[2.4]hept-4-en-7-one]: in test [1], the inhibition at 10 µM was found to be 97%. The IC50 was 155 nM in test [1]; > 10000 nM with A2780 ovarian cells [2]; ~257 nM with A2780 ovarian cells [3]; 1150 nM in test [4]; 525 nM in test [5].

Take `Cn1ncc2cc(-c3ccc(C4=NC5(CC5)C(=O)N4C[C@@H]4CCN(C(=O)C5COC5)C4)cc3)ccc21` [compound 490, 5-[4-(1-Methyl-1H-indazol-5-yl)phenyl]-6-{[(3R)-1-(oxetan-3-ylcarbonyl)pyrrolidin-3-yl]methyl}-4,6-diazaspiro[2.4]hept-4-en-7-one]: the inhibition at 10 µM in test [1] turned out to be 81%. In addition, the IC50 in test [1] was 331 nM; in the test with A2780 ovarian cells [2], > 10000 nM; in the test with A2780 ovarian cells [3], 93.3 nM; in test [4], 1050 nM; in test [5], 363 nM.

Turning to `O=C1CCc2cc(-c3ccc(C4=NC5(CC5)C(=O)N4C[C@@H]4CCN(C(=O)C5CC5)C4)cc3)ccc2N1` [compound 512, 6-[4-(6-{[(3R)-1-(Cyclopropylcarbonyl)pyrrolidin-3-yl]methyl}-7-oxo-4,6-diazaspiro[2.4]hept-4-en-5-yl)phenyl]-3,4-dihydroquinolin-2(1H)-one], in test [1], the inhibition at 10 µM stood at 87%. The IC50 in test [1] is 676 nM; in the test with A2780 ovarian cells [2], > 10000 nM; in the test on A2780 ovarian cells [3] it was 1000 nM; in test [4] it was 3980 nM; in test [5], 3090 nM.
